In PubChem BioAssay AID250 (DTP/NCI, 2004):
Where “and” joins values, the source holds several entries; their conditions need not be identical. Equal entries are not always repeated. Toxic doses and inconclusive results are not listed.

Tested on: BDF1 mice, L1210 leukemia sc, survival T/C
Experiment: NCI In Vivo Anticancer Drug Screen. Data for tumor model L1210 Leukemia (subcutaneous) in B6D2F1 (BDF1) mice
Conditions: endpoint: median survival time, higher = longer survival
Summary of the method: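 Antitumor activity is assessed in mice with transplanted tumors by comparing the treated group (T) with the vehicle control group (C).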

O=NN(CCCl)C(=O)NCCCl
T/C (dose: 0.65 mg/kg/injection, schedule: Q01DX Z (sc), vehicle: methylcellulose (MC)): 115 % of control | T/C (dose: 0.75 mg/kg/injection, schedule: Q01DX009 (ip), vehicle: saline): 110 % of control | T/C (dose: 1.08 mg/kg/injection, schedule: Q## X Z (sc), vehicle: methylcellulose (MC)): 107 % of control | T/C (dose: 1.5 mg/kg/injection, schedule: Q01DX009 (ip), vehicle: saline): 120 % of control | T/C (dose: 1.8 mg/kg/injection, schedule: Q01DX Z (sc), vehicle: methylcellulose (MC)): 184 % of control | T/C (dose: 1.8 mg/kg/injection, schedule: Q07DX Z (sc), vehicle: methylcellulose (MC)): 107 % of control | T/C (dose: 1.8 mg/kg/injection, schedule: Q## X Z (sc), vehicle: methylcellulose (MC)): 115 % of control | T/C (dose: 3.0 mg/kg/injection, schedule: Q01DX001 (ip), vehicle: saline): 119 % of control | T/C (dose: 3.0 mg/kg/injection, schedule: Q01DX001 (iv), vehicle: saline): 123 % of control | T/C (dose: 3.0 mg/kg/injection, schedule: Q01DX009 (ip), vehicle: saline): 190 % of control | T/C (dose: 3.0 mg/kg/injection, schedule: Q01DX Z (oral), vehicle: saline): 205 % of control | T/C (dose: 3.0 mg/kg/injection, schedule: Q01DX Z (sc), vehicle: methylcellulose (MC)): 223 % of control | T/C (dose: 3.0 mg/kg/injection, schedule: Q07DX Z (sc), vehicle: methylcellulose (MC)): 115 % of control | T/C (dose: 3.0 mg/kg/injection, schedule: Q## X Z (sc), vehicle: methylcellulose (MC)): 119 % of control | T/C (dose: 3.0 mg/kg/injection, schedule: Q## X Z (sc), vehicle: saline): 123 % of control | T/C (dose: 5.0 mg/kg/injection, schedule: Q01DX001 (sc), vehicle: saline): 115 % of control | T/C (dose: 5.0 mg/kg/injection, schedule: Q01DX Z (oral), vehicle: saline): 521 % of control | T/C (dose: 5.0 mg/kg/injection, schedule: Q01DX Z (sc), vehicle: methylcellulose (MC)): 200 % of control | T/C (dose: 5.0 mg/kg/injection, schedule: Q07DX Z (sc), vehicle: saline): 120 % of control and 123 % of control | T/C (dose: 5.0 mg/kg/injection, schedule: Q## X Z (sc), vehicle: methylcellulose (MC)): 173 % of control | T/C (dose: 6.0 mg/kg/injection, schedule: Q01DX009 (ip), vehicle: saline): 210 % of control | T/C (dose: 8.4 mg/kg/injection, schedule: Q01DX001 (ip), vehicle: saline): 233 % of control | T/C (dose: 8.4 mg/kg/injection, schedule: Q01DX001 (iv), vehicle: saline): 247 % of control | T/C (dose: 8.4 mg/kg/injection, schedule: Q01DX Z (oral), vehicle: saline): 284 % of control | T/C (dose: 8.4 mg/kg/injection, schedule: Q01DX Z (sc), vehicle: methylcellulose (MC)): 188 % of control | T/C (dose: 8.4 mg/kg/injection, schedule: Q07DX Z (sc), vehicle: methylcellulose (MC)): 161 % of control | T/C (dose: 8.4 mg/kg/injection, schedule: Q07DX Z (sc), vehicle: other): 305 % of control | T/C (dose: 8.4 mg/kg/injection, schedule: Q07DX Z (sc), vehicle: saline): 161 % of control and 210 % of control and 252 % of control | T/C (dose: 8.4 mg/kg/injection, schedule: Q16DX002 (ip), vehicle: saline): 172 % of control | T/C (dose: 8.4 mg/kg/injection, schedule: Q## X Z (sc), vehicle: methylcellulose (MC)): 250 % of control | T/C (dose: 8.4 mg/kg/injection, schedule: Q## X Z (sc), vehicle: saline): 246 % of control | T/C (dose: 10.0 mg/kg/injection, schedule: Q01DX001 (sc), vehicle: methylcellulose (MC)): 255 % of control | T/C (dose: 10.0 mg/kg/injection, schedule: Q01DX001 (sc), vehicle: saline): 185 % of control | T/C (dose: 10.8 mg/kg/injection, schedule: Q01DX001 (ip), vehicle: saline): 150 % of control | T/C (dose: 10.8 mg/kg/injection, schedule: Q01DX001 (sc), vehicle: saline): 248 % of control and 250 % of control | T/C (dose: 10.8 mg/kg/injection, schedule: Q07DX003 (sc), vehicle: saline): 274 % of control and 275 % of control | T/C (dose: 14.0 mg/kg/injection, schedule: Q01DX001 (iv), vehicle: saline): 209 % of control | T/C (dose: 14.0 mg/kg/injection, schedule: Q01DX Z (oral), vehicle: saline): 194 % of control | T/C (dose: 14.0 mg/kg/injection, schedule: Q01DX Z (sc), vehicle: saline): 161 % of control and 273 % of control and 285 % of control | T/C (dose: 14.0 mg/kg/injection, schedule: Q01HX002 (ip), vehicle: saline): 315 % of control
